Patent US20090075320A1, “Method for screening an enhancer or a masker of salty taste” (priority 2006, published 2009)

Biological target: T1, hENaC channel (Homo sapiens, UniProt P37088+P51168+P51170, A314G/A350T/D375G/F339S/S458R/Y369S)
T1 sequence (P37088 1-669): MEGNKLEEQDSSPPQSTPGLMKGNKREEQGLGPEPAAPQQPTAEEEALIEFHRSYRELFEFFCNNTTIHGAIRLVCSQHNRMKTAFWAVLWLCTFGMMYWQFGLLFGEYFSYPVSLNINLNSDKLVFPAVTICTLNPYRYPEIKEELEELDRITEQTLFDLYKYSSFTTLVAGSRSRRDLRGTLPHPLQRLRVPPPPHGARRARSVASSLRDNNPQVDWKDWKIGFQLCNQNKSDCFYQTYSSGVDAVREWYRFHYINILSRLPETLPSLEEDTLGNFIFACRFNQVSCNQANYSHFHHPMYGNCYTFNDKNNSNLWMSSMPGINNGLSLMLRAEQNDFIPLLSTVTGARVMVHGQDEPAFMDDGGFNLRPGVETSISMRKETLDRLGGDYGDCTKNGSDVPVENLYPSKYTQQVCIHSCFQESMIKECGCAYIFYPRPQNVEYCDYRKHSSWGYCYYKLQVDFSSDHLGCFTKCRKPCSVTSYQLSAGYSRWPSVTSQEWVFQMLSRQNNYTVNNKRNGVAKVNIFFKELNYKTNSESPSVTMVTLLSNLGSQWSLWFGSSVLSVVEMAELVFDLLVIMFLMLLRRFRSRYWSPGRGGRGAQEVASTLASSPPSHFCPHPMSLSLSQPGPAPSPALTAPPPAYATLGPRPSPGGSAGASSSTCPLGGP
T1 sequence (P51168 1-640 A314G): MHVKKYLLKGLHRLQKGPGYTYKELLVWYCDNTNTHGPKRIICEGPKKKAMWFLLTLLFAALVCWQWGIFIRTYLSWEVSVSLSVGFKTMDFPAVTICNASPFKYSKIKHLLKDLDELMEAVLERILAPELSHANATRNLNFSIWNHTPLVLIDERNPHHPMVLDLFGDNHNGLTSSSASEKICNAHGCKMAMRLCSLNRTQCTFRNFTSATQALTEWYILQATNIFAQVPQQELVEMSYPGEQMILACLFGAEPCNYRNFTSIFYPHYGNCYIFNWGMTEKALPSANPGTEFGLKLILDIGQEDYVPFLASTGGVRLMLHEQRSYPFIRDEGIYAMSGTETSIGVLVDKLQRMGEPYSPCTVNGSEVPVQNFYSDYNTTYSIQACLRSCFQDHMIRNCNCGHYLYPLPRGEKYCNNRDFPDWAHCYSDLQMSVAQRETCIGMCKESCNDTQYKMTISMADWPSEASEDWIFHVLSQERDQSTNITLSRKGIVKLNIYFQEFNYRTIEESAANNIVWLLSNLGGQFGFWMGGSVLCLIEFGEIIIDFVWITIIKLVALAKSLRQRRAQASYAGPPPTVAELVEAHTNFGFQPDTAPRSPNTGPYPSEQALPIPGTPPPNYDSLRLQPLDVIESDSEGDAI
T1 sequence (P51170 1-649 F339S/A350T/Y369S/D375G/S458R): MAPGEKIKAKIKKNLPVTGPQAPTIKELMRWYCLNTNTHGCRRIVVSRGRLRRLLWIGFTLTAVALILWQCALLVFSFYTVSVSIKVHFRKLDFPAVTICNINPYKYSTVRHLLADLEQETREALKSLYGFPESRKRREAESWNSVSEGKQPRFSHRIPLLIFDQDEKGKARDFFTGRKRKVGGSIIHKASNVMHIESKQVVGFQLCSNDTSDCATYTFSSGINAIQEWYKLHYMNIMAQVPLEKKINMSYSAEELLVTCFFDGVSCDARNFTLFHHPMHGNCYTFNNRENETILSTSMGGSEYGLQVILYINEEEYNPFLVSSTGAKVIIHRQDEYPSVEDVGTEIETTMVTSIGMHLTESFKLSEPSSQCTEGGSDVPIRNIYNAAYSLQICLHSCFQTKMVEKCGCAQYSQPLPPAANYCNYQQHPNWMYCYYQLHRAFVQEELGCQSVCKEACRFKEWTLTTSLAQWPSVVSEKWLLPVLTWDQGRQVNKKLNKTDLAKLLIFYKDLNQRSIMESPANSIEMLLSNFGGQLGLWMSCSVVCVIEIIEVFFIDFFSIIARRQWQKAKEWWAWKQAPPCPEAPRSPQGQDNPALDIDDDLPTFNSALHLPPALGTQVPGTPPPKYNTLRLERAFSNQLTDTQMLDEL
Test: Primary screen MP assay (membrane potential dye): dose-response curves for inhibition by hENaC blockers
Assay type: cell-based
Details: HEK293 Flp-In T-Rex hENaC cells (alpha, beta, gamma; pUR8191), loaded with MP-Blue dye for 1 hr, Flexstation; FIG. 4
Procedure: FIG. 4. Dose-response curve for different concentrations of the hENaC blockers amiloride, benzamil and phenamil (in M). Cells were loaded with MP-Blue dye for 1 hr and assayed in the Flexstation.
HEK293 Flp-In T-Rex hENaC cells were grown to about 80% confluency and dissociated from the culture dish with trypsin/EDTA for 1-5 minutes at 37° C. Dissociated cells were taken up in a concentration between 1×10^5 and 1×10^6 cells/ml in DMEM/Tet-free FCS/blasticidin/hygromycin medium. 100 μL of cells were added per well in a poly-L-lysine coated black well clear bottom 96-wells plate. The cells were grown overnight and then induced by addition of 100 μl DMEM/Tet-free FCS/blasticidin/hygromycin medium with doxycyclin (final conc. 0.25 μg/ml). Alternatively, in some wells amiloride was added to inhibit hENaC channel activity during induction.
After 20 to 48 hrs the medium was removed, cells were washed with buffer and subsequently loaded with MP-Blue (cat# R8042) or MP-Red (cat# R8123) dye (from Molecular Devices) according to the manufacturer's instructions for 1 hr at 37° C. The plates were subsequently loaded into the Flexstation II for fluorescence measurements. Compounds were added to the wells in different concentrations after a baseline measurement of 30 sec. […] The fluorescence values were normalized on the average value of the first five time points. […]

| Compound | inhibition of the hENaC channel (rank order from dose-response curves) |
| --- | --- |
| NC(=Nc1ccccc1)NC(=O)c1nc(Cl)c(N)nc1N [phenamil] | the best compound for inhibition |
| N=C(N)NC(=O)c1nc(Cl)c(N)nc1N [amiloride] | followed by benzamil and amiloride |
